Results from patent US9029377B2, “Platelet-activating factor receptor antagonists” (Merck Sharp & Dohme Corp., priority 2009, dated 2015).

molecular target: PAFR (Homo sapiens, UniProt P25105); assay: PAF Binding Assay (PAFR binding)
Sequence (P25105 whole entry): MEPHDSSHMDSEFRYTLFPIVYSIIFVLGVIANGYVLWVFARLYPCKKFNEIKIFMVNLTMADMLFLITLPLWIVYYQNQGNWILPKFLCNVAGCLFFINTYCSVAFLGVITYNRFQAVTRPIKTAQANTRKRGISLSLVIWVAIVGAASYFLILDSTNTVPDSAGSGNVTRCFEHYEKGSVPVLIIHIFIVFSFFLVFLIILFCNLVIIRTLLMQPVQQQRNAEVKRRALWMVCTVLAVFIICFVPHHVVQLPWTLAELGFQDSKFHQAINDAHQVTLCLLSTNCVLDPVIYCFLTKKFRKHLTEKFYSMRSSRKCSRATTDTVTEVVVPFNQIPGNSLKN

| IC50 | Compound |
| --- | --- |
| 7.3 nM | 4-(5-cyclopropyl-1,2,4-oxadiazol-3-yl)-N-[(1R,5S)-3,3-difluoro-5-(4H-1,2,4-triazol-4-yl)cyclohexyl]-3-ethylbiphenyl-4-sulfonamide [Compound 2Cy] |
| 12 nM | 4′-(difluoromethoxy)-N-[(1R,5S)-3,3-difluoro-5-(4H-1,2,4-triazol-4-yl)cyclohexyl]-2-ethylbenzenesulfonamide [Compound 2Caf] |
| 33 nM | CCc1cc(-c2cccc(F)c2)ccc1S(=O)(=O)N[C@H]1CCC[C@@H](n2cnnc2)C1 [2 Am, 3-ethyl-3′-fluoro-N-[(1S,3R)-3-(4H-1,2,4-triazol-4-yl)cyclohexyl]benzenesulfonamide] |
| 4.4 nM | O=S(=O)(N[C@@H]1C[C@H](n2cnnc2)CC(F)(F)C1)c1ccc(-c2ccc(OCC(F)(F)F)nc2)c(F)c1 [2 Gf, N-[(1R,5S)-3,3-difluoro-5-(4H-1,2,4-triazol-4-yl)cyclohexyl]-3-fluoro-4-[6-(2,2,2-trifluoroethoxy)pyridin-3-yl]benzenesulfonamide] |
| 16 nM | O=S(=O)(N[C@H]1CCC[C@@H](n2cnnc2)C1)c1ccc(-c2noc(C(F)(F)F)n2)cc1C1CC1 [2 Kb, 2-cyclopropyl-N-[(1S,3R)-3-(4H-1,2,4-triazol-4-yl)cyclohexyl]-4-[5-(trifluoromethyl)-1,2,4-oxadiazol-3-yl]benzenesulfonamide] |
| 8.9 nM | C=C(F)F.CCC(F)(F)c1nc(-c2ccc(S(=O)(=O)N[C@H]3CCC[C@@H](n4cnnc4)C3)c(C3CC3)c2)no1 [2 Kd, 2-cyclopropyl-4-[5-(1,1-difluoropropyl)-1,2,4-oxadiazol-3-yl]-N-[(1S,3R)-3-(4H-1,2,4-triazol-4-yl)cyclohexyl]benzenesulfonamide-1,1-difluoroethylene (1:1)] |
| 280 nM | O=S(=O)(N[C@H]1CCC[C@@H](n2cnnc2)C1)c1cc(C(F)(F)F)cc(C(F)(F)F)c1 [2 Mb, N-[(1S,3R)-3-(4H-1,2,4-triazol-4-yl)cyclohexyl]-3,5-bis(trifluoromethyl)benzenesulfonamide] |
| 194 nM | O=S(=O)(N[C@H]1CCC[C@@H](n2cnnc2)C1)c1cc(Cl)cc(Cl)c1 [2 Mh, 3,5-dichloro-N-[(1S,3R)-3-(4H-1,2,4-triazol-4-yl)cyclohexyl]benzenesulfonamide] |
| 20 nM | O=S(=O)(N[C@H]1CCC[C@@H](n2cnnc2)C1)c1cc(-c2cncc3ccccc23)cc(C(F)(F)F)c1 [3 Ay, 3-isoquinolin-4-yl-N-[(1S,3R)-3-(4H-1,2,4-triazol-4-yl)cyclohexyl]-5-(trifluoromethyl)benzenesulfonamide] |
| 36 nM | O=S(=O)(N[C@@H]1C[C@H](n2cnnc2)CC(F)(F)C1)c1cc(-c2ccc(F)cc2)cc(C(F)(F)F)c1 [3 Cc] |
| 5.5 nM | CCc1cc(-c2noc(C3CC3)n2)ccc1S(=O)(=O)N[C@H]1CCC[C@@H](n2cnnc2C(F)(F)F)C1 [Compound 2Aa, 4-(5-cyclopropyl-1,2,4-oxadiazol-3-yl)-2-ethyl-N-{(1S,3R)-3-[3-(trifluoromethyl)-4H-1,2,4-triazol-4-yl]cyclohexyl}benzenesulfonamide] |
| 44 nM | CCc1cc(-c2ccccc2OC(F)(F)F)ccc1S(=O)(=O)N[C@H]1CCC[C@@H](n2cnnc2)C1 [Compound 2Aaa, 3-ethyl-N-[(1S,3R)-3-(4H-1,2,4-triazol-4-yl)cyclohexyl]2′-(trifluoromethoxy)biphenyl-4-sulfonamide] |
| 54 nM | CCc1cc(-c2c(OC)cccc2OC(F)(F)F)ccc1S(=O)(=O)N[C@H]1CCC[C@@H](n2cnnc2)C1 [Compound 2Aab, 3-ethyl-2′-methoxy-N-[(1S,3R)-3-(4H-1,2,4-triazol-4-yl)cyclohexyl]-6′-(trifluoromethoxy)biphenyl-4-sulfonamide] |
| 13 nM | CCc1cc(-c2ccc(OC(F)(F)F)c(F)c2)ccc1S(=O)(=O)N[C@H]1CCC[C@@H](n2cnnc2)C1 [Compound 2Aac, 3-ethyl-3′-fluoro-N-[(1S,3R)-3-(4H-1,2,4-triazol-4-yl)cyclohexyl]-4′-(trifluoromethoxy)biphenyl-4-sulfonamide] |
| 36 nM | CCc1cc(-c2ccc(O)cc2)ccc1S(=O)(=O)N[C@H]1CCC[C@@H](n2cnnc2)C1 [Compound 2Aad, 3-ethyl-4′-hydroxy-N-[(1S,3R)-3-(4H-1,2,4-triazol-4-yl)cyclohexyl]biphenyl-4-sulfonamide] |
| 4.9 nM | CCc1cc(-c2cccc3cccnc23)ccc1S(=O)(=O)N[C@H]1CCC[C@@H](n2cnnc2)C1 [Compound 2Aae, 2-ethyl-4-quinolin-8-yl-N-[(1S,3R)-3-(4H-1,2,4-triazol-4-yl)cyclohexyl]benzenesulfonamide] |
| 167 nM | CCc1cc(-c2cccnc2O)ccc1S(=O)(=O)N[C@H]1CCC[C@@H](n2cnnc2)C1 [Compound 2Aag, 2-ethyl-4-(2-hydroxypyridin-3-yl)-N-[(1S,3R)-3-(4H-1,2,4-triazol-4-yl)cyclohexyl]benzenesulfonamide] |
| 1.8 nM | CCc1cc(-c2ccc(OC(C)C)nc2)ccc1S(=O)(=O)N[C@H]1CCC[C@@H](n2cnnc2)C1 [Compound 2Aai, 2-ethyl-4-(6-isopropoxypyridin-3-yl)-N-[(1S,3R)-3-(4H-1,2,4-triazol-4-yl)cyclohexyl]benzenesulfonamide] |
| 0.8 nM | CCc1cc(-c2ccc(OC(C)C)cc2)ccc1S(=O)(=O)N[C@H]1CCC[C@@H](n2cnnc2)C1 [Compound 2Aaj, 3-ethyl-4′-isopropoxy-N-[(1S,3R)-3-(4H-1,2,4-triazol-4-yl)cyclohexyl]biphenyl-4-sulfonamide] |
| 0.7 nM | CCc1cc(-c2ccc(OCC(F)(F)F)nc2)ccc1S(=O)(=O)N[C@H]1CCC[C@@H](n2cnnc2)C1 [Compound 2Aak, 2-ethyl-N-[(1S,3R)-3-(4H-1,2,4-triazol-4-yl)cyclohexyl]-4-[6-(2,2,2-trifluoroethoxy)pyridin-3-yl]benzenesulfonamide] |
| 81 nM | CCc1cc(-c2ccc(F)nc2)ccc1S(=O)(=O)N[C@H]1CCC[C@@H](n2cnnc2)C1 [Compound 2Aam, 2-ethyl-4-(6-fluoropyridin-3-yl)-N-[(1S,3R)-3-(4H-1,2,4-triazol-4-yl)cyclohexyl]benzenesulfonamide] |
| 71 nM | CCc1cc(-c2cncc(OC)c2)ccc1S(=O)(=O)N[C@H]1CCC[C@@H](n2cnnc2)C1 [Compound 2Aan, 2-ethyl-4-(5-methoxypyridin-3-yl)-N-[(1S,3R)-3-(4H-1,2,4-triazol-4-yl)cyclohexyl]benzenesulfonamide] |
| 57 nM | CCc1cc(-c2ccc(NC(C)=O)cc2)ccc1S(=O)(=O)N[C@H]1CCC[C@@H](n2cnnc2)C1 [Compound 2Aao, N′-[3′-ethyl-4′-({[(1S,3R)-3-(4H-1,2,4-triazol-4-yl)cyclohexyl]amino}sulfonyl)biphenyl-4-yl]acetamide] |
| 1.7 nM | CCc1cc(-c2ccc(OC(C(F)(F)F)C(F)(F)F)cc2)ccc1S(=O)(=O)N[C@H]1CCC[C@@H](n2cnnc2)C1 [Compound 2Aap, 3-ethyl-N-[(1S,3R)-3-(4H-1,2,4-triazol-4-yl)cyclohexyl]-4′-[2,2,2-trifluoro-1-(trifluoromethyl)ethoxy]biphenyl-4-sulfonamide] |
| 0.8 nM | CCc1cc(-c2ccc(OC3CCC3)nc2)ccc1S(=O)(=O)N[C@H]1CCC[C@@H](n2cnnc2)C1 [Compound 2Aaq, 4-[6-(cyclobutyloxy)pyridin-3-yl]-2-ethyl-N-[(1S,3R)-3-(4H-1,2,4-triazol-4-yl)cyclohexyl]benzenesulfonamide] |
| 2.2 nM | CCc1cc(-c2cc(Cl)cn3ccnc23)ccc1S(=O)(=O)N[C@H]1CCC[C@@H](n2cnnc2)C1 [Compound 2Aat, 4-(6-chloroimidazo[1,2-a]pyridin-8-yl)-2-ethyl-N-[(1S,3R)-3-(4H-1,2,4-triazol-4-yl)cyclohexyl]benzenesulfonamide] |
| 244 nM | CCc1cc(-c2cnc3ccnn3c2)ccc1S(=O)(=O)N[C@H]1CCC[C@@H](n2cnnc2)C1 [Compound 2Aau, 2-ethyl-4-pyrazolo[1,5-a]pyrimidin-6-yl-N-[(1S,3R)-3-(4H-1,2,4-triazol-4-yl)cyclohexyl]benzenesulfonamide] |

| Compound | IC50 |
| --- | --- |
| 2-ethyl-N-[(1S,3R)-3-(4H-1,2,4-triazol-4-yl)cyclohexyl]biphenyl-4-sulfonamide [Compound 2Af] | 15 nM |
| 3-(2-aminopyrimidin-4-yl)-N-[(1R,5S)-3,3-difluoro-5-(3-methyl-4H-1,2,4-triazol-4-yl)cyclohexyl]-5-(trifluoromethyl)benzenesulfonamide [Compound 9Ab] | 15 nM |
| 3-(2-cyclopropylpyrazolo[1,5-a]pyrimidin-7-yl)-N-[(1R,5S)-3,3-difluoro-5-(3-methyl-4H-1,2,4-triazol-4-yl)cyclohexyl]-5-(trifluoromethyl)benzenesulfonamide [Compound 9Af] | 5.1 nM |
| 3-(2-cyclopropylpyrimidin-4-yl)-N-[(1R,5S)-3,3-difluoro-5-(3-methyl-4H-1,2,4-triazol-4-yl)cyclohexyl]-5-(trifluoromethyl)benzenesulfonamide [Compound 9Aa] | 2.2 nM |
| 3-[1,2,4]triazolo[1,5-a]pyrimidin-7-yl-N-[(1R,5S)-3,3-difluoro-5-(3-methyl-4H-1,2,4-triazol-4-yl)cyclohexyl]-5-(trifluoromethyl)benzenesulfonamide [Compound 9Ac] | 86 nM |
| 3-bromo-N-[(1S,3R)-3-(4H-1,2,4-triazol-4-yl)cyclohexyl]-5-(trifluoromethyl)benzenesulfonamide [Compound 3b] | 0.9 nM |
| 3-ethyl-5-imidazo[1,2-a]pyridin-8-yl-N-[(1S,3R)-3-(4H-1,2,4-triazol-4-yl)cyclohexyl]-5-(trifluoromethyl)benzenesulfonamide [Compound 3Bau] | 0.8 nM |
| 3-isoxazol-5-yl-N-[(1R,5S)-3,3-difluoro-5-(3-methyl-4H-1,2,4-triazol-4-yl)cyclohexyl]-5-(trifluoromethyl)benzenesulfonamide [Compound 9Ad] | 34 nM |
| O=S(=O)(N[C@H]1CCC[C@@H](c2cccnc2)C1)c1ccc(-c2noc(C3CC3)n2)cc1 (relative stereo) [Compound 8e, 4-(5-cyclopropyl-1,2,4-oxadiazol-3-yl)-N-(3-pyridin-cis-3-ylcyclohexyl)benzenesulfonamide] | 1.9 nM |
